According to paper PMC6437697 (Journal of Medicinal Chemistry, 2019):

Experiments:
Assay in all cases: KINOMEscan
Assay type in all cases: binding
Conditions in all cases: read-out: % control activity remaining
[1] = molecular target: T1, RIPK5 (Homo sapiens, UniProt Q6XUX3)
T1 construct: purchased Eurofins DiscoverX KINOMEscan
T1 sequence (Q6XUX3 1-929): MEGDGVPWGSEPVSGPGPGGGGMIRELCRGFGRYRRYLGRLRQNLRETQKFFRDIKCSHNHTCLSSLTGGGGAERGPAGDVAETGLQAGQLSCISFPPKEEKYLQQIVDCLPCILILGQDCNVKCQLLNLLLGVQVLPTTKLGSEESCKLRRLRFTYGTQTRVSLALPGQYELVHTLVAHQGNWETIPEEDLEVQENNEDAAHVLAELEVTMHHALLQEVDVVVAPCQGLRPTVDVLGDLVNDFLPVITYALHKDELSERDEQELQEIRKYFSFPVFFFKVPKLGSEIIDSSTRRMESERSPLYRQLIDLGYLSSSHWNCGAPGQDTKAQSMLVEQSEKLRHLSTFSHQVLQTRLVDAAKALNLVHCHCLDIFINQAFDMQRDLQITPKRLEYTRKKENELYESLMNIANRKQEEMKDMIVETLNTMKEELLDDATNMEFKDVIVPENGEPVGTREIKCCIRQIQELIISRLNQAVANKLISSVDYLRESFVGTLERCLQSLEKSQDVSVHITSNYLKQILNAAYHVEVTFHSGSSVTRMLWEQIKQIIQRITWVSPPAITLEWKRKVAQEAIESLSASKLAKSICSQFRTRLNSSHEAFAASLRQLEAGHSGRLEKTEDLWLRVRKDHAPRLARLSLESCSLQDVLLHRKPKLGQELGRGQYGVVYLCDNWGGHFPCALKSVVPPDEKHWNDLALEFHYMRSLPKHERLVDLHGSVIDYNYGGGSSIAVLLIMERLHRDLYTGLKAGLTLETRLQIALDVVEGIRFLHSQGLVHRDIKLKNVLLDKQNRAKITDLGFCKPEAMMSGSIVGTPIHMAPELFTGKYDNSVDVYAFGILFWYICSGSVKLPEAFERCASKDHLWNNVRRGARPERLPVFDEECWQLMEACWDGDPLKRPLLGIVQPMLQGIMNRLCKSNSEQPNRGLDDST

[2] = molecular target: T2, RET(V804M) (Homo sapiens, UniProt P07949, V804M)
T2 construct: purchased Eurofins DiscoverX KINOMEscan

[3] = molecular target: T3, ZAK (Homo sapiens, UniProt Q9NYL2)
T3 construct: purchased Eurofins DiscoverX KINOMEscan

[4] = molecular target: T4, PIP5K1C (Homo sapiens, UniProt O60331)
T4 construct: purchased Eurofins DiscoverX KINOMEscan

[5] = molecular target: T5, NEK3 (Homo sapiens, UniProt P51956)
T5 construct: purchased Eurofins DiscoverX KINOMEscan
T5 sequence (P51956 1-506): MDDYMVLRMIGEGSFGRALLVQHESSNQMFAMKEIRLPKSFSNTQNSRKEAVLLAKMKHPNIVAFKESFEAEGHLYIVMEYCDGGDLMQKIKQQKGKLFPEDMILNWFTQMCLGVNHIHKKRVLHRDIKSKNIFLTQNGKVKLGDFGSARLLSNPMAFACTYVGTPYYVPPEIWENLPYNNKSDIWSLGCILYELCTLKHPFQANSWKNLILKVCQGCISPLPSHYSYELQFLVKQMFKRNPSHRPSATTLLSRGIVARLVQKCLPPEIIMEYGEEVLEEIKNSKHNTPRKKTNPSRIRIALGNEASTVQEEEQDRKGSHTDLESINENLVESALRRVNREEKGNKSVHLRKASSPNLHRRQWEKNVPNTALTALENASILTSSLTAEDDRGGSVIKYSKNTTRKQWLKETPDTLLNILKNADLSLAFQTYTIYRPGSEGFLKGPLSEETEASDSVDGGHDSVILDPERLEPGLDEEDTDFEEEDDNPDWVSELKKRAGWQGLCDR

[6] = molecular target: T6, PIK3CB (Homo sapiens, UniProt P42338)
T6 construct: purchased Eurofins DiscoverX KINOMEscan

[7] = molecular target: T7, MLK3 (Homo sapiens, UniProt Q16584)
T7 construct: purchased Eurofins DiscoverX KINOMEscan

[8] = molecular target: T8, CDC2L1 (Homo sapiens, UniProt P21127)
T8 construct: purchased Eurofins DiscoverX KINOMEscan

[9] = molecular target: T9, RSK2(Kin.Dom.1-N-terminal) (Homo sapiens, UniProt P51812)
T9 construct: RSK2(Kin.Dom.1-N-terminal); purchased Eurofins DiscoverX KINOMEscan

[10] = molecular target: T10, DRAK2 (Homo sapiens, UniProt O94768)
T10 construct: purchased Eurofins DiscoverX KINOMEscan
T10 sequence (O94768 1-372): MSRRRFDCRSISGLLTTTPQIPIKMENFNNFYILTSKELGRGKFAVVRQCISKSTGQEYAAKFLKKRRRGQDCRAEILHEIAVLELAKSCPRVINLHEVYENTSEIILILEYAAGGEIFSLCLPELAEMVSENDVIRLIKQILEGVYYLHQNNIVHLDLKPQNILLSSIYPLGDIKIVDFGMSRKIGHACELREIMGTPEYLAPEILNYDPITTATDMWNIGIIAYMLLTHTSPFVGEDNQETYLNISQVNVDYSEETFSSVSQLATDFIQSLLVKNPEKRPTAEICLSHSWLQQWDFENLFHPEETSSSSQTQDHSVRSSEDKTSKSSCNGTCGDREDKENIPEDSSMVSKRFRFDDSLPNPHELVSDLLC

[11] = molecular target: T11, MST3 (Homo sapiens, UniProt Q9Y6E0)
T11 construct: purchased Eurofins DiscoverX KINOMEscan

[12] = molecular target: T12, CAMK1G (Homo sapiens, UniProt Q96NX5)
T12 construct: purchased Eurofins DiscoverX KINOMEscan

[13] = molecular target: T13, MAP4K5 (Homo sapiens, UniProt Q9Y4K4)
T13 construct: purchased Eurofins DiscoverX KINOMEscan

[14] = molecular target: T14, CDK7 (Homo sapiens, UniProt P50613)
T14 construct: purchased Eurofins DiscoverX KINOMEscan

[15] = molecular target: T15, EPHA2 (Homo sapiens, UniProt P29317)
T15 construct: purchased Eurofins DiscoverX KINOMEscan

[16] = molecular target: T16, TIE2 (Homo sapiens, UniProt Q02763)
T16 construct: purchased Eurofins DiscoverX KINOMEscan

[17] = molecular target: T17, FLT4 (Homo sapiens, UniProt P35916)
T17 construct: purchased Eurofins DiscoverX KINOMEscan
T17 sequence (P35916 25-1363): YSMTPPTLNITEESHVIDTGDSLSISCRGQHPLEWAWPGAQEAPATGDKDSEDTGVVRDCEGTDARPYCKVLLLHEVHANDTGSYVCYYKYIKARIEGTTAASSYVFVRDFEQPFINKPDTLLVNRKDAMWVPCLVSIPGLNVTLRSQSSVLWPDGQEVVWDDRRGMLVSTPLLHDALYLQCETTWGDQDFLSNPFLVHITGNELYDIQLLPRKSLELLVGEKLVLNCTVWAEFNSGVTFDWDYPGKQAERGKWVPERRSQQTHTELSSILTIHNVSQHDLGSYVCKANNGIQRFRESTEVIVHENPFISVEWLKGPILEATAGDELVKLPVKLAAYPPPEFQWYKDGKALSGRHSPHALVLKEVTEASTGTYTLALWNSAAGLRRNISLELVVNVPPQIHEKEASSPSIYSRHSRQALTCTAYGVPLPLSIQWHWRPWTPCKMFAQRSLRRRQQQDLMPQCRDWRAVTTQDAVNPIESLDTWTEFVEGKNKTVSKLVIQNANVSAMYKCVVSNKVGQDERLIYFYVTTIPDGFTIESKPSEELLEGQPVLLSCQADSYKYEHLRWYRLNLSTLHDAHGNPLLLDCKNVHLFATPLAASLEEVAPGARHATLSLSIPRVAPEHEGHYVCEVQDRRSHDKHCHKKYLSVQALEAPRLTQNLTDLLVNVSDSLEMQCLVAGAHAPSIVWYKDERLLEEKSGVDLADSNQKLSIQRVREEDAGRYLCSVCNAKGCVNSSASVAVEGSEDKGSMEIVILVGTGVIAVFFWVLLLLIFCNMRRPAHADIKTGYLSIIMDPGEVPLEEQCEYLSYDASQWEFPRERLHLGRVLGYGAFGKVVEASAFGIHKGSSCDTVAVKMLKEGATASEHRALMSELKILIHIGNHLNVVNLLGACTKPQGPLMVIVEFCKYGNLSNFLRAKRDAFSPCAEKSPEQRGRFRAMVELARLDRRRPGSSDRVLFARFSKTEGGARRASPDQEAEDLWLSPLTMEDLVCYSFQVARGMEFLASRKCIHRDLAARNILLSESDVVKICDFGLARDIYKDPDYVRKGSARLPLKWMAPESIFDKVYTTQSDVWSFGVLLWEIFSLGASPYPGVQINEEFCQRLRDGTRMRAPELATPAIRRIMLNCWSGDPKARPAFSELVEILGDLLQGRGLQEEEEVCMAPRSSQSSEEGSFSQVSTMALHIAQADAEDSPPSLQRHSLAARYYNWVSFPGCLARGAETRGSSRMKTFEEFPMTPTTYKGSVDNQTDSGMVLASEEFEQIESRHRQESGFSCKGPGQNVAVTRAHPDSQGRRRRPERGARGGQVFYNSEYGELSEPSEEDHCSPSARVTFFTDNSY

T2 sequence (P07949 29-1114 V804M): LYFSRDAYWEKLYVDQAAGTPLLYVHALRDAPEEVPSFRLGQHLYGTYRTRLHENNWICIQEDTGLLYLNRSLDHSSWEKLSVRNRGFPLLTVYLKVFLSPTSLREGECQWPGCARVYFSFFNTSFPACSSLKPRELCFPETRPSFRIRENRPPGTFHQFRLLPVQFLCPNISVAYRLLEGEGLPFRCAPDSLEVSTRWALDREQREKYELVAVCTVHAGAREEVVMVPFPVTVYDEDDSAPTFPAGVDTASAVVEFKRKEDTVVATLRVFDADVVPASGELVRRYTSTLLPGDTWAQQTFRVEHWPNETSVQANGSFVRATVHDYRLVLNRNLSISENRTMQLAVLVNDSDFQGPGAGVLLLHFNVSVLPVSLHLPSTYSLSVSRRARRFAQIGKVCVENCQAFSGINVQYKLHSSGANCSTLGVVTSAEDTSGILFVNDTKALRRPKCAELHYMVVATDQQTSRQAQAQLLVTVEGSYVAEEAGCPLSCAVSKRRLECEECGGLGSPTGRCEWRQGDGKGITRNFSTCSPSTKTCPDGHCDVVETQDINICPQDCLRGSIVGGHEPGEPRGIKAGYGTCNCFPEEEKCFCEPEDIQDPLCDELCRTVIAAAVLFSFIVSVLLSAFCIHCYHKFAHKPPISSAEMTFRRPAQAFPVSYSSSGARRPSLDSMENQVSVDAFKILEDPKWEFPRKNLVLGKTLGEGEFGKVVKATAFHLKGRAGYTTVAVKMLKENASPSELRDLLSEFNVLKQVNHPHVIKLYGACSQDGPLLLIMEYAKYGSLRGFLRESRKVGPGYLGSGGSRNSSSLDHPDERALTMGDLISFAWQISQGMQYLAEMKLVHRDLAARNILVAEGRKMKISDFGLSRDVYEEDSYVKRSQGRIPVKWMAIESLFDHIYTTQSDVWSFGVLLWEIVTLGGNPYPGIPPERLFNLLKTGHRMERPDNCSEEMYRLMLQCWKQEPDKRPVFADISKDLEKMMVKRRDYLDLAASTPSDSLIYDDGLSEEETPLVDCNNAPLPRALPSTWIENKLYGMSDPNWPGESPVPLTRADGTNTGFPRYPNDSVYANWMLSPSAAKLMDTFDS
T16 sequence (Q02763 23-1124): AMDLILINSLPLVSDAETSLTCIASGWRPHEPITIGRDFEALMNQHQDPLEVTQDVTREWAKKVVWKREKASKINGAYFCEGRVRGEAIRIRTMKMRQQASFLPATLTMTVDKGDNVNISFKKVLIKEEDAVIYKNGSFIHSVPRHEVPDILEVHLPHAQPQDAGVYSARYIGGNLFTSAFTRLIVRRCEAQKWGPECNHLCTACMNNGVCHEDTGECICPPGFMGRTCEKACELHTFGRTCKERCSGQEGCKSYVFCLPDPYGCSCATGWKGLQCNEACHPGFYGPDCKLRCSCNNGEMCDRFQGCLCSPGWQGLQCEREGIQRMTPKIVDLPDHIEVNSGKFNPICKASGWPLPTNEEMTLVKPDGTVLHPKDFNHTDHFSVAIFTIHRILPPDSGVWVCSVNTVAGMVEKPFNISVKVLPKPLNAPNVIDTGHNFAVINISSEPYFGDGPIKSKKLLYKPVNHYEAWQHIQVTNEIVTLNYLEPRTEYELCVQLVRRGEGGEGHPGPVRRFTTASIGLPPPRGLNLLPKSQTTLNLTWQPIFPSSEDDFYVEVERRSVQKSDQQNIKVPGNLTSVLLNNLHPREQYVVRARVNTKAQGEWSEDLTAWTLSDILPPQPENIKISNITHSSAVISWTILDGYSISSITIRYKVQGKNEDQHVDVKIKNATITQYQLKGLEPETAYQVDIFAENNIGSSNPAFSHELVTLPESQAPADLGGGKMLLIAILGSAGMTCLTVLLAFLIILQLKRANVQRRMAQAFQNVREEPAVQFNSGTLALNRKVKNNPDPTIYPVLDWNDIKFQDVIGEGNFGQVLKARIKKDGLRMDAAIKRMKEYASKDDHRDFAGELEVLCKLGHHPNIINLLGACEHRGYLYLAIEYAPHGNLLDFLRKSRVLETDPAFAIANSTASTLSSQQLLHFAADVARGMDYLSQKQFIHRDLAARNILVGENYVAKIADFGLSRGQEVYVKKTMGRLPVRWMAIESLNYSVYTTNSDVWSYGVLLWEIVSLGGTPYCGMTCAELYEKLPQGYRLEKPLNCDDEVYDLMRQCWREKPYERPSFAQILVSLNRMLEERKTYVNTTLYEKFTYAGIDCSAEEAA
T12 sequence (Q96NX5 whole entry): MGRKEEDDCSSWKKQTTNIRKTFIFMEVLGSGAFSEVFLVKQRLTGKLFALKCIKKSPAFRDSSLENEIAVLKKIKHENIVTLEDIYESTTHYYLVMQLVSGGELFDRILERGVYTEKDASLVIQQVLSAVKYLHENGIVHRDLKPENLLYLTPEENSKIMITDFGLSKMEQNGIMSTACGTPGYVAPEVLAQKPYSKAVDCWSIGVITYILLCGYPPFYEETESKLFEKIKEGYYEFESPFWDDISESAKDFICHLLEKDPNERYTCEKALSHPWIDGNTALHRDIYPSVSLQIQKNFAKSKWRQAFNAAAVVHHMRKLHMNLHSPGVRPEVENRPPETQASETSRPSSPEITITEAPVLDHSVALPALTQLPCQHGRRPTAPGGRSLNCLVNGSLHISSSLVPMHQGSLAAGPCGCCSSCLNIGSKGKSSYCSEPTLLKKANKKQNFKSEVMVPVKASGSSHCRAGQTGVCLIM
T7 sequence (Q16584 whole entry): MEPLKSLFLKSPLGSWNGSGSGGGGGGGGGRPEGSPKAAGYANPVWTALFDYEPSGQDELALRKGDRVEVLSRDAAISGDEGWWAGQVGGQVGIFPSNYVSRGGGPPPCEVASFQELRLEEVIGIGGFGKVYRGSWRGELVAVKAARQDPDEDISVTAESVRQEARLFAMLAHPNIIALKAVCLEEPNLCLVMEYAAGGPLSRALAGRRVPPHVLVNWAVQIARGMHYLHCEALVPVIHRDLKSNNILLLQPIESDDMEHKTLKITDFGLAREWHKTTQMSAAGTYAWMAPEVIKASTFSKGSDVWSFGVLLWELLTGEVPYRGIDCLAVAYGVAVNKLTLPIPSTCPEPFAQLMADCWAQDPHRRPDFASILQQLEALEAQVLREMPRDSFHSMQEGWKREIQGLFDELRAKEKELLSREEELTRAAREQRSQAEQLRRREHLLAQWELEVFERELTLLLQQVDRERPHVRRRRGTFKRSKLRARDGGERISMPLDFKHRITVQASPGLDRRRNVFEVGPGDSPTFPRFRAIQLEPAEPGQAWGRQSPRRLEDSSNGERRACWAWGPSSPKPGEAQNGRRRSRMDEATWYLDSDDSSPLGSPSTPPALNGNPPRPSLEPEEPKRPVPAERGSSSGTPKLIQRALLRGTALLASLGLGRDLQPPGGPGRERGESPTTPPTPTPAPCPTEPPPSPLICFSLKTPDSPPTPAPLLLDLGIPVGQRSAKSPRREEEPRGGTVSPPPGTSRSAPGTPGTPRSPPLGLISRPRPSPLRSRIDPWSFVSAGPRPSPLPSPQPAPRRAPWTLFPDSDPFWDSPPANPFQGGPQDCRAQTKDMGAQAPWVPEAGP

Row | Compound | remaining binding at 1 µM [1] | remaining binding at 1 µM [2] | remaining binding at 1 µM [3] | remaining binding at 1 µM [4] | remaining binding at 1 µM [5] | remaining binding at 1 µM [6] | remaining binding at 1 µM [7] | remaining binding at 1 µM [8] | remaining binding at 1 µM [9] | remaining binding at 1 µM [10] | remaining binding at 1 µM [11] | remaining binding at 1 µM [12] | remaining binding at 1 µM [13] | remaining binding at 1 µM [14] | remaining binding at 1 µM [15] | remaining binding at 1 µM [16] | remaining binding at 1 µM [17]
1 | Clc1cc(NCC2CC2)c2ncc(-c3ccc4[nH]ncc4c3)n2n1 [compound 2, 6-Chloro-N-(cyclopropylmethyl)-3-(1H-indazol-5-yl)imidazo[1,2-b]pyridazin-8-amine] | 98% | 97% | 86% | 85% | 93% | 82% | 100% | 100% | 37% | 93% | 100% | 76% | 98% | 68% | 94% | 78% | 95%
2 | O=C(CN1CCOCC1)N[C@H]1CC[C@H](Nc2cc(Cl)nn3c(-c4ccc5[nH]ncc5c4)cnc23)CC1 [compound 26] | 91% | 82% | 87% | 91% | 88% | 93% | 100% | 100% | 19% | 61% | 91% | 51% | 87% | 16% | 99% | 89% | 83%
3 | CN1CCC(CNc2cc(Cl)nn3c(-c4cc5nc(Nc6ccccc6)[nH]c5cc4F)cnc23)CC1 [compound 31, 6-Chloro-3-(6-fluoro-2-(phenylamino)-1H-benzo[d]imidazol-5-yl)-N-((1-methylpiperidin-4-yl)methyl)imidazo[1,2-b]pyridazin-8-amine] | 79% | 100% | 93% | 84% | 100% | 97% | 81% | 92% | 100% | 92% | 92% | 100% | 100% | 61% | 94% | 91% | 100%
